From ChEMBL document CHEMBL1201862, “PubChem BioAssay data set” (2004) come the findings set out here.

Some test systems named below: LOX IMVI; OVCAR-3; NCI-H23; PC-3; SNB-75; ACHN; HL-60; RPMI-8226; MCF7; HCT-116; U-251; HOP-62; UACC-62; HT-29; T47D; Malme-3M; MOLT-4; RXF 393; Hs-578T.
Holding throughout (experiment): NCI-60 cell line screen, 48 h

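Exposure lasted 48 hours, with cells grown in 96-well plates and compounds tested at five concentrations. GI50 marks 50% less growth.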 Activity calls are given as the source filed them. Cut-off read from the data, not from the text of the source: active = GI50 up to about 1.1 µM and inactive = higher.

As to `Nn1nnc2ccccc21`, the GI50 in the assay with LOX IMVI, in the assay with OVCAR-3, with NCI-H23, with PC-3, in the assay on SNB-75 and in the assay with ACHN was > 100 µM (inactive) in each case. The GI50 with HL-60, in the assay with RPMI-8226, with MCF7, in the assay with HCT-116, with U-251 and with HOP-62 was > 100 µM (inactive) throughout. Also, the GI50 in the assay on UACC-62, with HT-29, in the assay with T47D, in the assay on Malme-3M and in the assay on MOLT-4 was > 100 µM (inactive) throughout.

`COC(=O)C1C(C(=O)OC)C2C(=O)C3C(C(=O)OC)C(C(=O)OC)C3C(=O)C12` (stereo unspecified): the GI50 with LOX IMVI, with NCI-H23, with ACHN, in the assay on HL-60, in the assay with HCT-116 and in the assay on U-251 was > 100 µM (inactive) each time. The GI50 in the assay on HOP-62 is > 100 µM (inactive); with RXF 393, 25.4 µM (inactive); with HT-29, > 100 µM (inactive); in the assay with Malme-3M, > 100 µM (inactive); with MOLT-4, > 100 µM (inactive).

Consider `CC1CN(C)c2ccccc2N=C1NN` (stereo unspecified), for which the GI50 with OVCAR-3, in the assay with NCI-H23, in the assay on Hs-578T, with PC-3, with ACHN and with HL-60 was > 100 µM (inactive) each time. The GI50 was > 100 µM (inactive) in the assay with RPMI-8226; > 100 µM (inactive) in the assay on HCT-116; > 100 µM (inactive) in the assay on U-251; > 100 µM (inactive) with HOP-62; 0.217 µM (active) in the assay on RXF 393; > 100 µM (inactive) in the assay on UACC-62. The GI50 in the assay with HT-29, in the assay with Malme-3M and with MOLT-4 was > 100 µM (inactive) throughout.

For the compound `O=C(Nc1cc2c(=O)oc3ccccc3c2oc1=O)c1cccnc1`, the GI50 with LOX IMVI is > 100 µM (inactive); in the assay with OVCAR-3, > 100 µM (inactive); in the assay with NCI-H23, > 100 µM (inactive); in the assay with PC-3, > 100 µM (inactive); in the assay on SNB-75 it was 62.4 µM (inactive); in the assay with ACHN it was 50 µM (inactive). For the same compound, the GI50 in the assay on HL-60 is 48 µM (inactive); in the assay on MCF7 it was > 100 µM (inactive); with HCT-116 it was > 100 µM (inactive); in the assay with U-251, 35.6 µM (inactive); in the assay on RXF 393, > 100 µM (inactive); in the assay on UACC-62 it was > 100 µM (inactive). The GI50 in the assay on HT-29, in the assay on T47D, in the assay on Malme-3M and in the assay with MOLT-4 was > 100 µM (inactive) in each case.

Take `COc1ccc(OC)c(C2CCCc3c2cnc2nc(N)nc(N)c32)c1` (stereo unspecified): the GI50 is < 0.01 µM (active) in the assay on LOX IMVI; < 0.01 µM (active) in the assay on NCI-H23; > 57.3 µM (inactive) in the assay on Hs-578T; > 71.1 µM (inactive) with PC-3; 0.247 µM (active) in the assay with SNB-75; < 0.01 µM (active) in the assay with ACHN. In addition, the GI50 is < 0.01 µM (active) in the assay on HL-60; 0.0695 µM (active) in the assay on RPMI-8226; < 0.01 µM (active) with MCF7; < 0.01 µM (active) in the assay with HCT-116; < 0.0129 µM (active) in the assay on RXF 393; < 0.01 µM (active) in the assay with UACC-62. The GI50 was < 0.01 µM (active) with HT-29, < 0.0238 µM (active) with Malme-3M and < 0.0168 µM (active) in the assay on MOLT-4.

Regarding `Cc1cc(C)c(C#N)c(SC(=S)NC(=O)c2ccc(Cl)cc2)n1`, the GI50 in the assay on LOX IMVI, in the assay with OVCAR-3, in the assay with NCI-H23, in the assay with PC-3, in the assay with SNB-75 and in the assay on ACHN was > 100 µM (inactive) each time. Besides, the GI50 with RPMI-8226, with MCF7, in the assay with HCT-116, with U-251, in the assay with HOP-62 and in the assay with RXF 393 was > 100 µM (inactive) throughout. Moreover, the GI50 in the assay on UACC-62 and with T47D was > 100 µM (inactive) each time.

With `Cn1c(=O)sc2cc(C(=S)N3CCC(Cc4ccccc4)CC3)ccc21`, the GI50 with LOX IMVI is 58.5 µM (inactive); with OVCAR-3, 53.8 µM (inactive); with NCI-H23, 44.7 µM (inactive); with Hs-578T, 21.4 µM (inactive); with PC-3, 37.9 µM (inactive); with ACHN it was > 100 µM (inactive). Also, the GI50 in the assay on HL-60 was 22.5 µM (inactive); with RPMI-8226, 9.89 µM (inactive); with MCF7, 41.7 µM (inactive); in the assay with HCT-116, 45.9 µM (inactive); with U-251, 16.2 µM (inactive); with HOP-62, > 100 µM (inactive). Further, the GI50 was 21.6 µM (inactive) in the assay on RXF 393, 61.5 µM (inactive) in the assay with UACC-62, 62.1 µM (inactive) in the assay on HT-29 and 20.9 µM (inactive) with MOLT-4.

Take `CC(CO)(CBr)COC(=O)c1cc(Br)c(N)c(Br)c1` (stereo unspecified): the GI50 with LOX IMVI is > 100 µM (inactive); in the assay with OVCAR-3, > 100 µM (inactive); in the assay with NCI-H23, 79.3 µM (inactive); with PC-3, > 100 µM (inactive); with ACHN, 73.8 µM (inactive); with HL-60, > 100 µM (inactive). Further, the GI50 is > 100 µM (inactive) in the assay on RPMI-8226; 94 µM (inactive) with HCT-116; 54 µM (inactive) in the assay with U-251; 32.4 µM (inactive) in the assay on HOP-62; > 100 µM (inactive) in the assay on UACC-62; > 100 µM (inactive) with HT-29. The GI50 with T47D and in the assay with MOLT-4 was > 100 µM (inactive) throughout.

For `C=C(C[N+](C)(C)C)N/N=C/c1oc(-c2ccc(OC)c(OC)c2)c(-c2ccc(OC)c(OC)c2)c1[N+](=O)[O-]`, the GI50 with LOX IMVI is 15 µM (inactive); with OVCAR-3 it was 24.8 µM (inactive); in the assay on NCI-H23, 21 µM (inactive); with SNB-75, 19.4 µM (inactive); in the assay with ACHN, 15.4 µM (inactive); with HL-60, 8.63 µM (inactive). Also, the GI50 with RPMI-8226 is 14.6 µM (inactive); with HCT-116, 17 µM (inactive); in the assay with U-251, 19.5 µM (inactive); in the assay with RXF 393, 15.2 µM (inactive); with UACC-62, > 10 µM (inactive); with HT-29, 16.9 µM (inactive). For the same compound, the values for the GI50 with Malme-3M and with MOLT-4 were > 10 µM (inactive) and 22.4 µM (inactive), respectively.

In the case of `Cc1cc(S(=O)(=O)N2CCNNC2=O)c(S)cc1Cl`, the GI50 in the assay with LOX IMVI was 28.8 µM (inactive); in the assay on OVCAR-3, > 100 µM (inactive); with Hs-578T, > 100 µM (inactive); with PC-3, > 100 µM (inactive); with SNB-75, > 100 µM (inactive); in the assay with ACHN, > 100 µM (inactive). In addition, the GI50 with HL-60 was 39.7 µM (inactive); in the assay with RPMI-8226, 71.4 µM (inactive); in the assay with MCF7 it was 77.3 µM (inactive); in the assay on U-251, > 100 µM (inactive); with RXF 393, 13.7 µM (inactive); in the assay on UACC-62, > 100 µM (inactive). Moreover, the GI50 in the assay on Malme-3M was 17.7 µM (inactive); in the assay on MOLT-4, 31.6 µM (inactive).

In the case of `CNc1nnc(CCCCCCCCc2nnc(NC)o2)o1`, the GI50 in the assay on LOX IMVI is 16.4 µM (inactive); in the assay with OVCAR-3, 25.9 µM (inactive); in the assay on NCI-H23, > 100 µM (inactive); with PC-3, > 100 µM (inactive); in the assay with SNB-75 it was > 100 µM (inactive); with ACHN, > 100 µM (inactive). In addition, the GI50 with HL-60 is 32.4 µM (inactive); in the assay with MCF7, 20.7 µM (inactive); in the assay with HCT-116, 20.3 µM (inactive); with U-251, 22.2 µM (inactive); in the assay on HOP-62 it was 35.3 µM (inactive); in the assay with RXF 393, > 100 µM (inactive). Also, the GI50 in the assay on HT-29 was 29.9 µM (inactive); with MOLT-4, 34.7 µM (inactive).

On to `Cn1c(=O)c2[nH]c(-n3nc(-c4ccccc4)cc3N)nc2n(C)c1=O`, for which the GI50 was 5.35 µM (inactive) in the assay with OVCAR-3; 19.7 µM (inactive) with PC-3; 3.66 µM (inactive) with ACHN; 12 µM (inactive) in the assay with HL-60; 12.6 µM (inactive) in the assay with RPMI-8226; 13.8 µM (inactive) in the assay with MCF7. Besides, the GI50 in the assay on HCT-116 is 6.49 µM (inactive); in the assay with U-251 it was 6.78 µM (inactive); in the assay on HOP-62, 12.5 µM (inactive); in the assay with RXF 393, 26.8 µM (inactive); in the assay with UACC-62 it was 6.37 µM (inactive); in the assay on HT-29, 4.15 µM (inactive). Moreover, the GI50 is 11.3 µM (inactive) with T47D, 13.7 µM (inactive) in the assay with Malme-3M and 7.14 µM (inactive) in the assay with MOLT-4.

For `CCCC(=O)OC1=C(c2ccccc2)Sc2ccccc2-n2cccc21`, the GI50 with LOX IMVI, in the assay on NCI-H23, with PC-3, in the assay on SNB-75, in the assay on HL-60 and in the assay on RPMI-8226 was > 10 µM (inactive) each time. For the same compound, the GI50 in the assay with MCF7, with HOP-62, with RXF 393, with UACC-62, in the assay with HT-29 and with T47D was > 10 µM (inactive) throughout. The GI50 in the assay with Malme-3M and in the assay on MOLT-4 was > 10 µM (inactive) in each case.

As for `c1ccc(C/C(=N\Nc2nc3ccccc3o2)c2ccccn2)cc1`, the GI50 in the assay with LOX IMVI was 0.185 µM (active); in the assay with OVCAR-3 it was 0.0137 µM (active); with NCI-H23, 0.0382 µM (active); in the assay on Hs-578T, 0.569 µM (active); in the assay on PC-3 it was < 0.01 µM (active); with ACHN, 0.0202 µM (active). Moreover, the GI50 was 0.0698 µM (active) in the assay with HL-60; 0.0482 µM (active) in the assay on RPMI-8226; < 0.01 µM (active) in the assay with MCF7; < 0.01 µM (active) in the assay on HCT-116; 0.198 µM (active) in the assay with U-251; 0.0354 µM (active) in the assay on HOP-62. Further, the GI50 in the assay on RXF 393 is 0.0851 µM (active); in the assay on UACC-62, 0.387 µM (active); with HT-29, < 0.01 µM (active); in the assay on Malme-3M, 0.0233 µM (active); in the assay on MOLT-4, < 0.01 µM (active).
